Results: publication PMC2248166, “Quantitative peptide binding motifs for 19 human and mouse MHC class I molecules derived using positional scanning combinatorial peptide libraries” (Immunome Research, 2008)
pIC50: −log10 of the molar value. Where a SMILES comes first, the peptide text is derived from it.

Legend:
Experiment in all cases: biochemical
Type in all cases: binding
HLA A*3001 = HLA A*3001 (Homo sapiens, UniProt P04439, D140H/D185E/E176W/F33S/G80R/H175R/K168Q/R138E/R41S)
HLA A*3201 = HLA A*3201 (Homo sapiens, UniProt P04439, A270S/D101S/D185E/E176V/E277Q/F133L/G103R/G107R/G231S/H175R/I121M/I218V/I322F/K168Q/L105A/L300P/L318F/M331R/P208A/P217A/Q94H/R106L/R138Q/S129P/T104I/T323A/T345S/V100E/V321M/V358M)
HLA B*1501 = HLA B*1501 (Homo sapiens, UniProt P01889, A329T/A93T/A95T/C349S/D201E/D98Y/E187L/E204Q/E69M/E70A/K202T/N87E/Q94N/R155S/R180W/S121R/S35A/S48A/V306I/V36M/Y140S/Y91S)
HLA B*1503 = HLA B*1503 (Homo sapiens, UniProt P01889, A329T/A93T/A95T/C349S/D201E/D98Y/E187L/E204Q/K202T/N87E/Q94N/R155S/R180L/S121R/S35A/V306I/V36M/Y140S/Y91S)
HLA B*0801 = HLA B*0801 (Homo sapiens, UniProt P01889, A93T/A95T/D138N/E176V/E187T/K202T/Q94N/R180D/S35A/V36M/Y33D/Y91F)

Chain of HLA A*3001 (P04439 25-365 limits assumed, stated change not applied): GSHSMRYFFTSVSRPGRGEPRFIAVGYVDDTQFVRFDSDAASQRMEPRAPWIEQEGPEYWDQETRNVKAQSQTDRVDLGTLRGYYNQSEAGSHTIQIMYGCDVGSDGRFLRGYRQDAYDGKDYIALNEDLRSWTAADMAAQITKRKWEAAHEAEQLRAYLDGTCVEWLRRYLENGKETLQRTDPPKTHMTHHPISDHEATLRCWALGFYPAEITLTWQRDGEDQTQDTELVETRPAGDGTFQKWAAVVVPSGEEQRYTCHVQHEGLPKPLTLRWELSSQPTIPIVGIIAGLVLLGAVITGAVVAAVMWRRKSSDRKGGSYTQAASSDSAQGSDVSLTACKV

Structure (SMILES) | pIC50 (HLA A*3001) | pIC50 (HLA A*3201) | pIC50 (HLA B*1501) | pIC50 (HLA B*1503) | pIC50 (HLA B*0801)
CC[C@H](C)[C@H](N)C(=O)N[C@H](C(=O)N[C@@H](CC(C)C)C(=O)N[C@H](C(=O)N[C@@H](CC(N)=O)C(=O)N[C@H](C(=O)N[C@H](C(=O)N[C@@H](CC(N)=O)C(=O)N[C@H](C(=O)O)[C@@H](C)CC)C(C)C)C(C)C)[C@@H](C)O)[C@@H](C)O [3102.0320] (H-ITLTNVVNI-OH) | 7.46 | 7.11 | 7.92 | 7.66 | 
CC[C@H](C)[C@H](NC(=O)[C@H](CCCCN)NC(=O)[C@H](CC(N)=O)NC(=O)[C@H](CO)NC(=O)[C@H](Cc1ccc(O)cc1)NC(=O)[C@H](CCCCN)NC(=O)[C@H](CC(C)C)NC(=O)[C@@H](NC(=O)[C@@H](N)CCCCN)[C@@H](C)O)C(=O)O [3102.0326] (H-KTLKYSNKI-OH) | 7.42 | 8.72 | 6.91 |  | 
CC[C@H](C)[C@H](NC(=O)[C@@H](N)CCCCN)C(=O)NCC(=O)N[C@@H](CCSC)C(=O)N[C@@H](Cc1ccccc1)C(=O)N[C@@H](CC(N)=O)C(=O)N[C@@H](CC(C)C)C(=O)N[C@H](C(=O)N[C@@H](Cc1ccccc1)C(=O)O)[C@@H](C)O [3102.0341] (H-KIGMFNLTF-OH) |  | 9.57 | 9.68 | 7.89 | 
CC[C@H](C)[C@H](NC(=O)[C@H](CC(N)=O)NC(=O)[C@H](Cc1ccccc1)NC(=O)[C@H](CCSC)NC(=O)[C@@H](N)CC(N)=O)C(=O)N[C@@H](CO)C(=O)N[C@@H](Cc1ccccc1)C(=O)N[C@@H](CCCNC(=N)N)C(=O)N[C@@H](Cc1ccccc1)C(=O)O [3102.0348] (H-NMFNISFRF-OH) | 7.57 | 8.44 | 7.37 | 7.72 | 
CC[C@H](C)[C@H](NC(=O)[C@@H]1CCCN1C(=O)[C@@H](NC(=O)[C@H](CO)NC(=O)[C@H](CC(N)=O)NC(=O)[C@H](Cc1ccc(O)cc1)NC(=O)[C@H](CO)NC(=O)[C@H](CCC(N)=O)NC(=O)[C@@H](N)CCSC)C(C)C)C(=O)O [3102.0353] (H-MQSYNSVPI-OH) |  | 8.60 | 8.80 | 9.14 | 
CC[C@H](C)[C@H](N)C(=O)N[C@@H](C)C(=O)N[C@@H](CO)C(=O)N[C@H](C(=O)N[C@@H](CC(C)C)C(=O)N[C@H](C(=O)N[C@H](C(=O)N[C@H](C(=O)N[C@H](C(=O)O)[C@@H](C)CC)[C@@H](C)O)C(C)C)[C@@H](C)CC)[C@@H](C)O [3102.0358] (H-IASTLIVTI-OH) | 8.00 | 7.13 | 6.81 |  | 
CC[C@H](C)[C@H](NC(=O)[C@@H](NC(=O)[C@@H](N)CCCCN)[C@@H](C)O)C(=O)N[C@@H](CC(N)=O)C(=O)N[C@@H](C)C(=O)N[C@@H](CC(C)C)C(=O)N[C@H](C(=O)N[C@@H](Cc1ccc(O)cc1)C(=O)N[C@@H](Cc1ccccc1)C(=O)O)C(C)C [3102.0359] (H-KTINALVYF-OH) |  | 8.06 | 9.43 | 7.64 | 
CC[C@H](C)[C@H](NC(=O)[C@@H](NC(=O)[C@@H](NC(=O)[C@@H]1CCCN1C(=O)[C@H](CCCNC(=N)N)NC(=O)[C@H](Cc1ccccc1)NC(=O)[C@H](Cc1ccccc1)NC(=O)[C@@H](NC(=O)[C@@H](N)CCCCN)[C@@H](C)CC)[C@@H](C)O)[C@@H](C)O)C(=O)O [3102.0470] (H-KIFFRPTTI-OH) | 7.77 | 8.96 | 7.03 |  | 
CC(C)C[C@H](NC(=O)[C@H](CO)NC(=O)[C@H](Cc1ccccc1)NC(=O)[C@@H]1CCCN1C(=O)[C@H](CCCNC(=N)N)NC(=O)[C@H](CCCNC(=N)N)NC(=O)[C@H](CC(C)C)NC(=O)[C@H](CC(C)C)NC(=O)[C@@H](N)CCCCN)C(=O)O [3102.0529] (H-KLLRRPFSL-OH) |  |  |  |  | 9.44
CC(C)C[C@H](NC(=O)[C@H](CCCCN)NC(=O)[C@H](CCCNC(=N)N)NC(=O)[C@@H](N)CCCNC(=N)N)C(=O)N[C@@H](CC(C)C)C(=O)N[C@@H](CCCNC(=N)N)C(=O)N[C@@H](CCCNC(=N)N)C(=O)N1CCC[C@H]1C(=O)N[C@@H](Cc1ccccc1)C(=O)O [3102.0530] (H-RRKLLRRPF-OH) |  |  |  |  | 7.96
CC[C@H](C)[C@H](NC(=O)[C@@H](NC(=O)[C@H](CC(N)=O)NC(=O)[C@H](CCCCN)NC(=O)[C@H](CCCNC(=N)N)NC(=O)[C@@H](NC(=O)[C@H](Cc1ccccc1)NC(=O)[C@H](CC(C)C)NC(=O)[C@@H](N)Cc1ccc(O)cc1)[C@@H](C)CC)C(C)C)C(=O)O [3102.0531] (H-YLFIRKNVI-OH) |  |  |  |  | 9.15
CC[C@H](C)[C@H](NC(=O)CNC(=O)[C@@H]1CCCN1C(=O)[C@@H](N)CO)C(=O)N[C@@H](CCCNC(=N)N)C(=O)N1CCC[C@H]1C(=O)N[C@@H](CCCNC(=N)N)C(=O)N[C@@H](Cc1ccccc1)C(=O)N[C@@H](CC(C)C)C(=O)O [3102.0532] (H-SPGIRPRFL-OH) |  |  |  |  | 7.25
CC[C@H](C)[C@H](NC(=O)[C@@H](N)CO)C(=O)N[C@@H](CCCCN)C(=O)N[C@@H](CO)C(=O)N[C@@H](CCCCN)C(=O)N[C@@H](CO)C(=O)N[C@@H](CCCNC(=N)N)C(=O)N[C@@H](CCCNC(=N)N)C(=O)N[C@@H](CC(C)C)C(=O)O [3102.0534] (H-SIKSKSRRL-OH) |  |  |  |  | 7.52
CC[C@H](C)[C@H](NC(=O)[C@@H](N)CCC(N)=O)C(=O)N[C@H](C(=O)N[C@@H](C)C(=O)N[C@@H](Cc1ccc(O)cc1)C(=O)N[C@@H](Cc1ccccc1)C(=O)N[C@@H](CO)C(=O)N[C@@H](CCC(=O)O)C(=O)N[C@@H](Cc1ccccc1)C(=O)O)C(C)C [3102.0816] (H-QIVAYFSEF-OH) |  | 7.15 | 8.85 | 8.10 | 
CC(C)C[C@H](NC(=O)[C@@H](N)C(C)C)C(=O)N[C@@H](Cc1ccccc1)C(=O)N[C@@H](CCC(=O)O)C(=O)N[C@H](C(=O)N[C@@H](Cc1ccccc1)C(=O)N[C@H](C(=O)N[C@H](C(=O)N[C@@H](Cc1ccccc1)C(=O)O)C(C)C)C(C)C)C(C)C [3102.0818] (H-VLFEVFVVF-OH) |  | 8.11 | 8.54 | 8.31 | 
CC(C)C[C@H](NC(=O)[C@H](C)N)C(=O)N[C@@H](CC(C)C)C(=O)N[C@@H](CCC(=O)O)C(=O)N[C@@H](CC(C)C)C(=O)N[C@@H](Cc1ccccc1)C(=O)N[C@@H](CC(N)=O)C(=O)N[C@@H](C)C(=O)N[C@@H](Cc1ccccc1)C(=O)O [3102.0961] (H-ALLELFNAF-OH) |  | 6.78 | 8.60 | 9.62 | 
CC[C@H](C)[C@H](NC(=O)[C@H](CC(C)C)NC(=O)[C@H](Cc1ccccc1)NC(=O)[C@@H](NC(=O)[C@H](CO)NC(=O)[C@H](Cc1ccc(O)cc1)NC(=O)[C@H](CC(C)C)NC(=O)[C@@H](N)CCCNC(=N)N)[C@@H](C)CC)C(=O)N[C@@H](Cc1ccccc1)C(=O)O [3102.1049] (H-RLYSIFLIF-OH) |  | 8.16 | 8.47 | 9.80 | 
CC(C)C[C@H](N)C(=O)N[C@@H](CO)C(=O)N[C@@H](Cc1ccc(O)cc1)C(=O)N[C@@H](Cc1ccc(O)cc1)C(=O)N[C@H](C(=O)N[C@H](C(=O)N[C@@H](Cc1ccc(O)cc1)C(=O)N[C@H](C(=O)N[C@@H](Cc1ccccc1)C(=O)O)C(C)C)C(C)C)C(C)C [3102.1098] (H-LSYYVVYVF-OH) |  | 6.55 | 8.19 | 7.72 | 
CC[C@H](C)[C@H](NC(=O)[C@H](CO)NC(=O)[C@@H](N)CC(C)C)C(=O)N[C@@H](Cc1ccccc1)C(=O)N[C@@H](Cc1ccccc1)C(=O)N[C@@H](Cc1ccc(O)cc1)C(=O)N[C@@H](CO)C(=O)N[C@@H](CO)C(=O)N[C@@H](Cc1ccccc1)C(=O)O [3102.1177] (H-LSIFFYSSF-OH) |  | 6.89 | 7.77 | 9.66 | 
CC[C@H](C)[C@H](NC(=O)[C@@H](N)CCCCN)C(=O)N[C@@H](Cc1ccc(O)cc1)C(=O)N[C@@H](CC(N)=O)C(=O)N[C@H](C(=O)N[C@H](C(=O)N[C@@H](CC(N)=O)C(=O)N1CCC[C@H]1C(=O)N[C@@H](Cc1ccccc1)C(=O)O)[C@@H](C)O)C(C)C [3102.1223] (H-KIYNVTNPF-OH) |  | 8.37 | 8.57 | 8.12 | 
CC[C@H](C)[C@H](NC(=O)[C@H](CO)NC(=O)[C@H](CC(N)=O)NC(=O)[C@H](CC(C)C)NC(=O)[C@@H](N)CO)C(=O)N[C@@H](Cc1ccccc1)C(=O)N[C@@H](CC(N)=O)C(=O)N[C@H](C(=O)N[C@@H](Cc1ccccc1)C(=O)O)[C@@H](C)O [3102.1238] (H-SLNSIFNTF-OH) |  | 7.85 | 8.66 |  | 
CC(C)C[C@H](NC(=O)[C@@H](NC(=O)[C@@H](NC(=O)[C@H](CO)NC(=O)[C@H](CC(N)=O)NC(=O)[C@H](CCC(N)=O)NC(=O)[C@@H](N)CC(C)C)C(C)C)C(C)C)C(=O)N[C@@H](CCC(N)=O)C(=O)N[C@@H](Cc1ccccc1)C(=O)O [3102.1263] (H-LQNSVVLQF-OH) |  | 8.14 | 8.82 | 8.21 | 
CSCC[C@H](NC(=O)[C@@H](N)Cc1c[nH]cn1)C(=O)N[C@@H](C)C(=O)N[C@@H](Cc1ccc(O)cc1)C(=O)N[C@@H](CO)C(=O)N[C@@H](Cc1ccccc1)C(=O)N[C@@H](CCC(N)=O)C(=O)N[C@H](C(=O)N[C@@H](Cc1ccccc1)C(=O)O)[C@@H](C)O [3102.1331] (H-HMAYSFQTF-OH) |  | 7.80 | 9.60 | 9.55 | 
